How the values were obtained:
DLD-1 BRCA2−/− cells = experiment: Homologous recombination synthetic lethal inhibition of proliferation, DLD-1 BRCA2-/- (Cell Titre Glo 3D); assay type: cell-based; conditions: Homo sapiens, DLD-1, 288 h, DLD-1 BRCA2−/− cells, 12 days; read-out: POLQ PD Prolif Lumin BRCA2 −/− mean pIC50 (converted)
Outline: (§1)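 Proliferation of HR-deficient DLD-1 BRCA2−/− versus isogenic wild-type DLD-1 was measured by ATP luminescence (CellTiter-Glo 3D). Compound exposure lasted 12 or 7 days, respectively, with a fresh dose on day 6. IC50 was the concentration halving maximal signal.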

DLD-1 cells = experiment: Inhibition of proliferation, DLD-1 BRCA2 wt control (Cell Titre Glo 3D); assay type: cell-based; conditions: Homo sapiens, DLD-1, 168 h, DLD-1 BRCA2 wt cells, 7 days; read-out: POLQ PD Prolif Lumin DLD1 mean pIC50 (converted)
Outline: as §1

Compound: C[C@@H]1C(=O)NCCN1CCOc1ccc(-c2nc3c(OC4(C)CC4)ncnc3n2Cc2ccccc2)c(Cl)c1 [Example H22, (R)-4-(2-(4-(9-benzyl-6-(1-methylcyclopropoxy)-9H-purin-8-yl)-3-chlorophenoxy)ethyl)-3-methylpiperazin-2-one]
- IC50 (DLD-1 BRCA2−/− cells): 126 nM
- IC50 (DLD-1 cells): > 10000 nM

Compound: CC1(Oc2ncnc3c2nc(-c2ccc(OCCN4CC5(CSC5)C4)cc2Cl)n3Cc2ccccc2)CC1 [Example H23, 6-(2-(4-(9-benzyl-6-(1-methylcyclopropoxy)-9H-purin-8-yl)-3-chlorophenoxy)ethyl)-2-thia-6-azaspiro[3.3]heptane]
- IC50 (DLD-1 BRCA2−/− cells): 126 nM
- IC50 (DLD-1 cells): 2510 nM

Compound: CC1(Oc2ncnc3c2nc(-c2ccc(OCCN4CCNCC4)c(Cl)c2Cl)n3Cc2ccccc2)CC1 [Example J1, 9-benzyl-8-(2,3-dichloro-4-(2-(piperazin-1-yl)ethoxy)phenyl)-6-(1-methylcyclopropoxy)-9H-purine]
- IC50 (DLD-1 BRCA2−/− cells): 251 nM
- IC50 (DLD-1 cells): 501 nM

Compound: COc1cc(-c2nc3c(OC4(C)CC4)ncnc3n2Cc2ccccc2)c(Cl)cc1OCCN1CCNCC1 [Example J2, 9-benzyl-8-(2-chloro-5-methoxy-4-(2-(piperazin-1-yl)ethoxy)phenyl)-6-(1-methylcyclopropoxy)-9H-purine]
- IC50 (DLD-1 BRCA2−/− cells): 794 nM
- IC50 (DLD-1 cells): 3980 nM

Compound: COc1c(OCCN2CCNCC2)ccc(-c2nc3c(OC4(C)CC4)ncnc3n2Cc2ccccc2)c1Cl [Example J3, 9-benzyl-8-(2-chloro-3-methoxy-4-(2-(piperazin-1-yl)ethoxy)phenyl)-6-(1-methylcyclopropoxy)-9H-purine]
- IC50 (DLD-1 BRCA2−/− cells): 501 nM
- IC50 (DLD-1 cells): 3160 nM

Compound: CC1(Oc2ncnc3c2nc(-c2cc(Cl)c(OCCN4CCNCC4)cc2Cl)n3Cc2ccccc2)CC1 [Example J4, 9-benzyl-8-(2,5-dichloro-4-(2-(piperazin-1-yl)ethoxy)phenyl)-6-(1-methylcyclopropoxy)-9H-purine]
- IC50 (DLD-1 BRCA2−/− cells): 50.1 nM
- IC50 (DLD-1 cells): 3980 nM

Compound: Cc1cc(OCCN2CCNCC2)ncc1-c1nc2c(OC3(C)CC3)ncnc2n1Cc1ccccc1Cl [Example J5, 9-(2-chlorobenzyl)-8-(4-methyl-6-(2-(piperazin-1-yl)ethoxy)pyridin-3-yl)-6-(1-methylcyclopropoxy)-9H-purine]
- IC50 (DLD-1 BRCA2−/− cells): 1000 nM
- IC50 (DLD-1 cells): > 10000 nM

Compound: Cc1cc(OCCN2CCNCC2)ncc1-c1nc2c(OC3(C)CC3)ncnc2n1Cc1cccc(Cl)c1 [Example J6, 9-(3-chlorobenzyl)-8-(4-methyl-6-(2-(piperazin-1-yl)ethoxy)pyridin-3-yl)-6-(1-methylcyclopropoxy)-9H-purine]
- IC50 (DLD-1 BRCA2−/− cells): 631 nM
- IC50 (DLD-1 cells): > 10000 nM

Compound: CC1(Oc2ncnc3c2nc(-c2ccc(OCCN4CCNCC4)cc2Cl)n3Cc2ccccn2)CCC1 [Example J7, 8-(2-chloro-4-(2-(piperazin-1-yl)ethoxy)phenyl)-6-(1-methylcyclobutoxy)-9-(pyridin-2-ylmethyl)-9H-purine]
- IC50 (DLD-1 BRCA2−/− cells): 316 nM
- IC50 (DLD-1 cells): 7940 nM

Compound: CC1(Oc2ncnc3c2nc(-c2ccc(OCCN4CCNCC4)cc2Cl)n3CCc2cccnc2)CC1 [Example J8, 8-(2-chloro-4-(2-(piperazin-1-yl)ethoxy)phenyl)-6-(1-methylcyclopropoxy)-9-(2-(pyridin-3-yl)ethyl)-9H-purine]
- IC50 (DLD-1 BRCA2−/− cells): > 10000 nM
- IC50 (DLD-1 cells): 7940 nM

Compound: C[C@H](Cn1c(-c2ccc(OCCN3CCNCC3)cc2Cl)nc2c(OC3(C)CC3)ncnc21)c1ccccc1 [Example J9, (S)-8-(2-chloro-4-(2-(piperazin-1-yl)ethoxy)phenyl)-6-(1-methylcyclopropoxy)-9-(2-phenylpropyl)-9H-purine]
- IC50 (DLD-1 BRCA2−/− cells): 2510 nM
- IC50 (DLD-1 cells): 5010 nM

Compound: C[C@@H](Cn1c(-c2ccc(OCCN3CCNCC3)cc2Cl)nc2c(OC3(C)CC3)ncnc21)c1ccccc1 [Example J10, (R)-8-(2-chloro-4-(2-(piperazin-1-yl)ethoxy)phenyl)-6-(1-methylcyclopropoxy)-9-(2-phenylpropyl)-9H-purine]
- IC50 (DLD-1 BRCA2−/− cells): 631 nM
- IC50 (DLD-1 cells): 3980 nM

Source: US20250195530A1, “POLQ INHIBITORS” (ASTRAZENECA AB, priority 2022, published 2025)
